A short description of experiment [1]: Activity at RXR-LXR heterodimer assessed as induction of ABCA1 mRNA. Details: species or system Homo sapiens.
The target of experiment [2] is T1, Retinoic acid receptor RXR-alpha (Homo sapiens, UniProt P19793).
T1 sequence (P19793 whole entry): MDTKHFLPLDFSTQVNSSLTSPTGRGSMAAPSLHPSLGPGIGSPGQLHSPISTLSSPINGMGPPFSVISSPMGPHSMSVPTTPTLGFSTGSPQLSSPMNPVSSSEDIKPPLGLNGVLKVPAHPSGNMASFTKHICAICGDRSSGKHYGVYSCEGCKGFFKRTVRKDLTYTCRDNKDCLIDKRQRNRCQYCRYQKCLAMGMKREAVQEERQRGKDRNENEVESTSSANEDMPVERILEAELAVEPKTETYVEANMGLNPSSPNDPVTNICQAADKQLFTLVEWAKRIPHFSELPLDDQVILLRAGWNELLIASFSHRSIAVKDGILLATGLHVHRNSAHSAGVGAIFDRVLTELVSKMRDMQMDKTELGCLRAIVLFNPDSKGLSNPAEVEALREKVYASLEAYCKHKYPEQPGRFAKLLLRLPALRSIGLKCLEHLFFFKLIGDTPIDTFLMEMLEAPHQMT
As to the kind of experiment: Activity at RXRalpha by GAL4DNA cotransfection assay.

The target of experiment [3] is T2, Retinoic acid receptor RXR-alpha (Homo sapiens) (UniProt P19793).
T2 sequence (whole entry): T1 sequence (P19793 whole entry)
As to the kind of experiment: Activity at RXRalpha by GAL4DNA cotransfection assay relative to 5-((3-(1-ethyl-4,4,6-trimethyl-2-oxo-1,2,3,4-tetrahydroquinolin-7-yl)-4-(trifluoromethoxy)phenyl)methylene)thiazolidine-2,4-dione. Details: concentration or dose not given beside the values.

For a further experiment, the species on record is Homo sapiens. As to the kind of experiment: Activation of RXR-LXR heterodimer assessed as induction of ABCA1 mRNA relative to 5-((3-(1-ethyl-4,4,6-trimethyl-2-oxo-1,2,3,4-tetrahydroquinolin-7-yl)-4-(trifluoromethoxy)phenyl)methylene)thiazolidine-2,4-dione. Details: concentration or dose not given beside the values.
Experiment [4] in a line: Activity at RXR-PPARgamma in human preadipocytes assessed as induction of adipocytes fatty acid binding protein. In kind it is cell-based.
Experiment [5] concerns Rattus norvegicus. Description: Effect on serum cholesterol level in high cholesterol diet fed Sprague-Dawley rat at 10 mg/kg, po after 8 days relative to control. In kind it is functional.
Experiment [6] has as its system Rattus norvegicus. Description: Effect on serum HDL-C level in high cholesterol diet fed Sprague-Dawley rat at 10 mg/kg, po after 8 days relative to control. In kind it is functional.
The test system of experiment [7] is Rattus norvegicus. Description: Effect on serum LDL-C level in high cholesterol diet fed Sprague-Dawley rat at 10 mg/kg, po after 8 days relative to control. In kind it is functional.
The test system of experiment [8] is Rattus norvegicus. As to the kind of experiment: Effect on serum triglyceride level in high cholesterol diet fed Sprague-Dawley rat at 10 mg/kg, po after 8 days relative to control. It is filed as functional.

Regarding `Cc1cc2c(cc1-c1cc(CCC(=O)O)ccc1OC(F)(F)F)N(CC(F)(F)F)C(=O)CC2(C)C`, the EC50 (usually the concentration at which the effect is half-maximal) in experiment [1] was > 3000 nM; in [2], 1.4 nM. Further, the Activity in experiment [3] came out at 100%.

On to `Cc1cc2c(cc1-c1cc(CCC(=O)O)ccc1OCC(F)(F)F)N(C(C)C)C(=O)CC2(C)C`, for which the EC50 stood at 369 nM in experiment [1] and 36.5 nM in [2]. In addition, the Activity came to 45% in the experiment listed under Homo sapiens and 79% in experiment [3].

Take `Cc1cc2c(cc1-c1cc(C3CC3C(=O)O)ccc1OCC(F)(F)F)N(C)C(=O)CC2(C)C` (racemic): the EC50 in experiment [1] was > 3000 nM; in experiment [2], 144 nM. In experiment [3], this molecule came in with an Activity of 108%.

Take `CCN1C(=O)CC(C)(C)c2cc(C)c(-c3cc(OC(C)(C)C(=O)O)ccc3OC(F)(F)F)cc21`: the EC50 in experiment [1] is > 3000 nM.

In the case of `CCN1C(=O)CC(C)(C)c2cc(C)c(-c3cc([C@H]4C[C@@H]4C(=O)O)ccc3OC(F)(F)F)cc21`, the EC50 is > 3000 nM in experiment [1] and 361 nM in experiment [2]. The Activity in [3] stood at 92%.

Take `CCN1C(=O)CC(C)(C)c2cc(C)c(-c3cc(CCCC(=O)O)ccc3OC(F)(F)F)cc21`: the values for the EC50 in experiment [1] and in experiment [2] were > 3000 nM and 527 nM, respectively. The molecule also came in with an Activity in experiment [3] of 70%.

For the molecule `CCN1C(=O)CC(C)(C)c2cc(C)c(-c3cc(/C=C4\SC(=O)NC4=O)ccc3OC(F)(F)F)cc21`, the EC50 in experiment [1] was 180 nM; in [4], 139 nM. Further, the Activity in the experiment with Rattus norvegicus [5] turned out to be 267 mg/dL; in the experiment on Rattus norvegicus [6], 47 mg/dL; in the experiment on Rattus norvegicus [7] it was 41 mg/dL; in the experiment on Rattus norvegicus [8], 286 mg/dL.

Turning to `Cc1cc2c(cc1-c1cc(CCC(=O)O)ccc1OC(F)(F)F)N(C)C(=O)CC2(C)C`, the EC50 in experiment [1] was found to be 53 nM; in experiment [2] it was 45.9 nM. This molecule also gave an Activity in experiment [3] of 91%.

With `Cc1cc2c(cc1-c1cc(CCC(=O)O)ccc1OC(F)(F)F)N(C(C)C)C(=O)CC2(C)C`, the EC50 in experiment [1] amounted to 1 nM. Besides, the Activity in the experiment filed under Homo sapiens came to 59%; in [3], 80%.

On to `CCN1C(=O)CC(C)(C)c2cc(C)c(-c3cc(OCC(=O)O)ccc3OC(F)(F)F)cc21`, for which, in [1], the EC50 was > 3000 nM.

For the molecule `CCN1C(=O)CC(C)(C)c2cc(C)c(-c3cc(C#CC(=O)O)ccc3OC(F)(F)F)cc21`, in experiment [1], the EC50 was > 3000 nM.

Take `CCN1C(=O)CC(C)(C)c2cc(C)c(-c3cc(/C=C(\C)C(=O)O)ccc3OC(F)(F)F)cc21`: the EC50 was 100 nM in [1] and 27.9 nM in [2]. Further, the values for the Activity (in the experiment listed under Homo sapiens; in [3]) were 49% and 81%, respectively.

As for `COc1ccc(C2CC2C(=O)O)cc1-c1cc2c(cc1C)C(C)(C)CC(=O)N2C(C)C` (racemic), the EC50 in experiment [1] came out at 1520 nM; in experiment [2], 208 nM. The same molecule yielded an Activity in experiment [3] of 50%.

`CCN1C(=O)CC(C)(C)c2cc(C)c(-c3cc(CCC(=O)O)ccc3OCC(F)(F)F)cc21`: the EC50 was > 3000 nM in experiment [1], 70.2 nM in experiment [2] and > 3000 nM in experiment [4]. This molecule returned an Activity in [3] of 90%.

On to `CCN1C(=O)CC(C)(C)c2cc(C)c(-c3cc([C@@H]4C[C@H]4C(=O)O)ccc3OC(F)(F)F)cc21`, for which the EC50 in experiment [1] is > 3000 nM; in experiment [2], 2.3 nM; in [4], 581 nM. Besides, the Activity in experiment [3] came to 85%.

In the case of `CCN1C(=O)CC(C)(C)c2cc(C)c(-c3cc(CC(C)C(=O)O)ccc3OC(F)(F)F)cc21` (stereo not given), the EC50 was > 3000 nM in [1] and 760 nM in experiment [2]. The Activity in experiment [3] was determined as 85%.

Regarding `CCN1C(=O)CC(C)(C)c2cc(C)c(-c3cc(/C=C\C(=O)O)ccc3OC(F)(F)F)cc21`, the figures for the EC50 in experiment [1] and in experiment [2] were 886 nM and 39.1 nM, respectively. Further, the Activity in the experiment listed under Homo sapiens was found to be 75%; in [3], 97%.

With `Cc1cc2c(cc1-c1cc([C@@H]3C[C@H]3C(=O)O)ccc1OC(F)(F)F)N(C(C)C)C(=O)CC2(C)C`, the figures for the EC50 in experiment [1], in experiment [2] and in [4] were > 3000 nM, 10 nM and 266 nM, respectively. The Activity in [3] was 70%.

Turning to `Cc1cc2c(cc1-c1cc(C3CC3C(=O)O)ccc1OC(F)(F)F)N(C(C)C)C(=O)CC2(C)C` (racemic), the EC50 in experiment [1] is > 3000 nM; in [2], 5 nM. In experiment [3], the Activity was 85%.

Consider `COc1ccc(CCC(=O)O)cc1-c1cc2c(cc1C)C(C)(C)CC(=O)N2C(C)C`, for which the values for the EC50 in [1] and in [2] were > 3000 nM and 361 nM, respectively. The same molecule gave an Activity in [3] of 60%.

As to `CCN1C(=O)CC(C)(C)c2cc(C)c(-c3cc(/C=C/C(=O)O)ccc3OC(F)(F)F)cc21`, in [1], the EC50 turned out to be 3.6 nM. Also, the Activity in the experiment listed under Homo sapiens stood at 81%; in [3], 115%.

`CCN1C(=O)CC(C)(C)c2cc(C)c(-c3cc(C4CC4C(=O)O)ccc3OCC(F)(F)F)cc21` (racemic): the EC50 in experiment [1] was > 3000 nM; in [2], 116 nM. Further, the Activity in experiment [3] turned out to be 87%.

Consider `CCN1C(=O)CC(C)(C)c2cc(C)c(-c3cc(/C(C)=C/C(=O)O)ccc3OC(F)(F)F)cc21`, for which the EC50 in experiment [2] is > 10000 nM.

Regarding `CCN1C(=O)CC(C)(C)c2cc(C)c(-c3cc(C4CC4C(=O)O)ccc3OC(F)(F)F)cc21` (racemic), the half-maximal effective concentration (EC50) in [1] was 17.4 nM; in experiment [2] it was 19.2 nM. The same molecule came in with an Activity in experiment [3] of 88%.

`Cc1cc2c(cc1-c1cc([C@H]3C[C@@H]3C(=O)O)ccc1OC(F)(F)F)N(C(C)C)C(=O)CC2(C)C`: the half-maximal effective concentration (EC50) is > 3000 nM in experiment [1] and 198 nM in experiment [2]. This molecule had an Activity in experiment [3] of 50%.

Regarding `CCN1C(=O)CC(C)(C)c2cc(C)c(-c3cc(C(C)CC(=O)O)ccc3OC(F)(F)F)cc21` (stereo not given), the EC50 in experiment [1] is 347 nM; in experiment [2], 37.7 nM. Further, the Activity in the experiment listed under Homo sapiens turned out to be 160%; in experiment [3], 99%.
